The text below walks through data of ChEMBL document CHEMBL1201862, “PubChem BioAssay data set” (2004).

What is called AC50 is the concentration at which the activity in the assay is half-maximal. One may read the EC50 as the midpoint of the concentration-response curve. One may read the IC50 as the concentration that gives 50% inhibition. By CC50 is commonly meant the concentration at which the toxic effect on the cells reaches its halfway point.

The target in one data set is Cytochrome P450 2C9 (Homo sapiens, UniProt P11712). The settings on record: Potency.
Sequence of Cytochrome P450 2C9 (P11712 whole entry): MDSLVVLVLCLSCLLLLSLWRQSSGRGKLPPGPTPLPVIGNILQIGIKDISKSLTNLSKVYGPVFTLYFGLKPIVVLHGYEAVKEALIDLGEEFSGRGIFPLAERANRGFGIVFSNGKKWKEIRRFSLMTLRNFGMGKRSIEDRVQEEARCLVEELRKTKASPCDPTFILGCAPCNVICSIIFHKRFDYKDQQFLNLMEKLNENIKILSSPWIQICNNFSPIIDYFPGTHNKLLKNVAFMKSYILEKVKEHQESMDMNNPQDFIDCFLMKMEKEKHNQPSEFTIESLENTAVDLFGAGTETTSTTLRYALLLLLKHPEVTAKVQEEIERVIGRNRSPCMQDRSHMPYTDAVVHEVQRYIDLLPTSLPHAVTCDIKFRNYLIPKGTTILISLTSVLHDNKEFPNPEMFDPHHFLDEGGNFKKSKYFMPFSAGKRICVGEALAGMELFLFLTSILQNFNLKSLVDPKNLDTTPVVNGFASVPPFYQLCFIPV
The target in another data set is Wee1-like protein kinase (Homo sapiens, UniProt P30291). The experiment in a line: G2/M cell cycle arrest in HeLa, late-stage follow-up, mechanism study for Wee1 degradation inhibitor project, FACS, panel member Wee1 Degradation (AID 2088).
Sequence of Wee1-like protein kinase (P30291 whole entry): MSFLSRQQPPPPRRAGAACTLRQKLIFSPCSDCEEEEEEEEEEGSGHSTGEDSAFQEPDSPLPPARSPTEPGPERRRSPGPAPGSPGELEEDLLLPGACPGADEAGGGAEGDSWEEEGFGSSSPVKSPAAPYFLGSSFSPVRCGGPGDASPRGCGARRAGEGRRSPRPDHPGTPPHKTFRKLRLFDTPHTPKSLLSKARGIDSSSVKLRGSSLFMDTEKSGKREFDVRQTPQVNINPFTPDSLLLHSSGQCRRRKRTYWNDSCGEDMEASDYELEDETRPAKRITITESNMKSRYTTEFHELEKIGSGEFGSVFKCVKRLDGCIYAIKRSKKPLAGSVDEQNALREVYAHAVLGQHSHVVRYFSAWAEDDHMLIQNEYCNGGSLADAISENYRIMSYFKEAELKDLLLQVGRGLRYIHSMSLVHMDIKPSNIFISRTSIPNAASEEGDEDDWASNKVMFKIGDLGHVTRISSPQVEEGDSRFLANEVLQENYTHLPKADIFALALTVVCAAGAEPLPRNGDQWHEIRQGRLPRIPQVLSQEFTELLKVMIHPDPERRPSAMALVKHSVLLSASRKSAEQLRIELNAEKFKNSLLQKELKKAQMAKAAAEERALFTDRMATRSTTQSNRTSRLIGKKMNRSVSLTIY
The target in data set [1] is G2/mitotic-specific cyclin-B1 (Homo sapiens, UniProt P14635). The experiment in a line: G2/M cell cycle arrest in HeLa, late-stage follow-up, mechanism study for Wee1 degradation inhibitor project, FACS, panel member Cyclin B Degradation (AID 2088).
Sequence of G2/mitotic-specific cyclin-B1 (P14635 whole entry): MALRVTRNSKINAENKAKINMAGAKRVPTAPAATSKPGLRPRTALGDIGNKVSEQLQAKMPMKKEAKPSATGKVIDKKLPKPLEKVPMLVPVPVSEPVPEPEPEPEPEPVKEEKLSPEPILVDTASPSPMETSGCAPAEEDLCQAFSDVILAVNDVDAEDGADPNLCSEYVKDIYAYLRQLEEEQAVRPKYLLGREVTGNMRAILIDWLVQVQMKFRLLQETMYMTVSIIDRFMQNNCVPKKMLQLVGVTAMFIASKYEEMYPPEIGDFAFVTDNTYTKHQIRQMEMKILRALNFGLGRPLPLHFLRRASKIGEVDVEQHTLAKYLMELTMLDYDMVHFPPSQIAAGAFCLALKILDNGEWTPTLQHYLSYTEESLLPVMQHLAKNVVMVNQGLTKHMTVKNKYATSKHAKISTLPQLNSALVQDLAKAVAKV
In data set [2] the target is T1, Neuropeptides B/W receptor type 1 (Homo sapiens, UniProt P48145).
T1 sequence (P48145 whole entry): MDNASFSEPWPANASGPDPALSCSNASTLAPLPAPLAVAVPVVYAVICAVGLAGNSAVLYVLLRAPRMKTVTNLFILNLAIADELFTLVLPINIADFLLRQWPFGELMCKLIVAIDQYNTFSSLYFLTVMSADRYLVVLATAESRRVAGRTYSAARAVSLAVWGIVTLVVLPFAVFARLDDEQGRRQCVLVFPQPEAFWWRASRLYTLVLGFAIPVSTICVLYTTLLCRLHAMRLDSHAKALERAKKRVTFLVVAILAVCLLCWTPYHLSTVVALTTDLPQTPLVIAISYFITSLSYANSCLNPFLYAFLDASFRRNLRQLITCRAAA
The experiment in a line: Fluorescence-based dose response cell-based high throughput screening assay to identify antagonists of the G-protein coupled receptor 7 (GPR7). [Related pubchem assays: 1952 (Screening assay (GPR7 antagonists).), 1880 (Summary AID.)]. Format: functional.

Data set [3] concerns the target Melanin-concentrating hormone receptor 1 (Homo sapiens, UniProt Q99705). The experiment in a line: Fluorescence-based counterscreen for antagonists of the G-protein coupled receptor 7 (GPR7): cell-based high throughput dose response assay to identify antagonists of the melanin-concentrating hormone receptor 1 (MCHR1). Format: functional.
In data set [4] the target is T2, Rac GTPase-activating protein 1 (Homo sapiens, UniProt Q9H0H5).
T2 sequence (Q9H0H5 whole entry): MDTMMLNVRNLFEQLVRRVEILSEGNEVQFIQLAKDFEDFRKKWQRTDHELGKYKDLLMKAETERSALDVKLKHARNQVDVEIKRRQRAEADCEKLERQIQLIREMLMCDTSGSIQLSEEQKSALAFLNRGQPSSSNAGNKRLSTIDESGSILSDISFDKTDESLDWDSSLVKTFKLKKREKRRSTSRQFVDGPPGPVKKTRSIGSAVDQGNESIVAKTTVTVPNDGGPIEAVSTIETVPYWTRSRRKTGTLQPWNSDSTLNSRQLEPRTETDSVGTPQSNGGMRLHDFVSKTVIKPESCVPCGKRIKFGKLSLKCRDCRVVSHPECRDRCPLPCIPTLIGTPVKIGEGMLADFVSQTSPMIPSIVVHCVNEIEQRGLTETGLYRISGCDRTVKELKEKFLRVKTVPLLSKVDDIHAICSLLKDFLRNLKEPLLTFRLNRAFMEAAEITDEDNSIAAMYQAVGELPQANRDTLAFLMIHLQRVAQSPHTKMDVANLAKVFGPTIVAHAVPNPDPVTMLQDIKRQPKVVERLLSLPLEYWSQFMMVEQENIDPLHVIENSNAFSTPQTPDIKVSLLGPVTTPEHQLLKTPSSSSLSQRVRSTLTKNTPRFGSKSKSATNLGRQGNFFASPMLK
The experiment in a line: MgcRacGAP GTPase-activating activity inhibitors, confirmation, biochemical, ADP Hunter fluorescence, primary and confirmatory (AID 624330). Format: functional.

Data set [5] concerns the target Neurotensin receptor type 1 (Homo sapiens, UniProt P30989). Format: functional.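 Note: Image-based confirmatory dose-response assay measuring agonist activity at NTR1; NTR1-expressing U2OS osteosarcoma cells imaged for beta-arrestin GFP spot formation; agonist potency where compounds increase beta-arrestin recruitment.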
Data set [6] in a line: A549 cell cytotoxicity, dose response, cytotoxicity control, plate reader, cherry-pick, antagonist series (AID 743412). Format: functional, cell-based.
Data set [7] in a line: HepG2 cell cytotoxicity, dose response, cytotoxicity control, plate reader, cherry-pick, antagonist series (AID 743416). Format: functional, cell-based.
Data set [8] in a line: LGR2 antagonists, dose response, cell-based, HEK293, CRE-luciferase reporter, cherry pick, set 2 (AID 743343).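 Note: transfected cells were stimulated with diluted bursicon conditioned medium after compound addition.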 Format: functional. For orientation: A reporter such as luciferase makes a cellular process visible.
Data set [9] is described as follows: MC4R antagonists, dose response, counter-screen for LGR2 antagonist project, cell-based, plate reader, cherry pick (AID 743444).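 Note: transfected HEK 293 cells stimulated with alpha-MSH peptide; potency of inhibitors of the alpha-MSH evoked signal.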 Format: functional.
Data set [10] can be described thus: HEK293 cell cytotoxicity, dose response, cytotoxicity control, plate reader, cherry-picked samples (AID 743446). Format: functional, cell-based.
The target in data set [11] is T3, Tyrosine-protein phosphatase non-receptor type 7 (Homo sapiens, UniProt P35236).
T3 sequence (P35236 whole entry): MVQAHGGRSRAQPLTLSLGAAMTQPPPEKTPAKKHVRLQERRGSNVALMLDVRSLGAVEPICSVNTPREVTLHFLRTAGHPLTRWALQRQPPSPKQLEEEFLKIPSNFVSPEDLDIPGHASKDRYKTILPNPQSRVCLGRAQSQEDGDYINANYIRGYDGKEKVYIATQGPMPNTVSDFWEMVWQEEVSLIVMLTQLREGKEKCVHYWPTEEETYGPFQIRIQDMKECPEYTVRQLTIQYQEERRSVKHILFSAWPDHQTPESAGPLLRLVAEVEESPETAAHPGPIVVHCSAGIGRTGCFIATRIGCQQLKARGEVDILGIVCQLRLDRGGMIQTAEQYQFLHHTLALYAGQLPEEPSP
Format: functional.

The target of data set [12] is Glyceraldehyde-3-phosphate dehydrogenase (Homo sapiens, UniProt P04406).
The target of data set [13] is Heat shock cognate 71 kDa protein (Homo sapiens, UniProt P11142). Nature of the data set: In Vitro Hsc70 Dose Response Fluorescence Polarization Assay. [Related pubchem assays: 1072 ].
Sequence of Heat shock cognate 71 kDa protein (P11142 whole entry): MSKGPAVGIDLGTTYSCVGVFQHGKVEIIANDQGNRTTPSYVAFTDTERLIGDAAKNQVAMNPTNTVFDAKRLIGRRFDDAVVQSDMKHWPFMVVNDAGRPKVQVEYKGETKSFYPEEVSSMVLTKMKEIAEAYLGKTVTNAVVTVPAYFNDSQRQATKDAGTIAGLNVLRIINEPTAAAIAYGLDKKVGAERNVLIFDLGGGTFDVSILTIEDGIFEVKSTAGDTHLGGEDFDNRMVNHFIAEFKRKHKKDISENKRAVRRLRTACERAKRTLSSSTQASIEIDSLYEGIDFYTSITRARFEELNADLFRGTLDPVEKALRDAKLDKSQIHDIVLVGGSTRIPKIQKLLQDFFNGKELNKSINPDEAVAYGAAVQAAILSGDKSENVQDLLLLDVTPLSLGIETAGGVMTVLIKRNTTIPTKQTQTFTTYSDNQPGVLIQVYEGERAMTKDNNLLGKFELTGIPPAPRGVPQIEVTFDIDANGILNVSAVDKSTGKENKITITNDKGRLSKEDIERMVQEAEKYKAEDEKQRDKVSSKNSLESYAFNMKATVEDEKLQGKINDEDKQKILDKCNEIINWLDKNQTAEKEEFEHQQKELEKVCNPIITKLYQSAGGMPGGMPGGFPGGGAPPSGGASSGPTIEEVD
The target in the next data set is Bcl-2-like protein 10 (Homo sapiens, UniProt Q9HD36). Nature of the data set: Biochemical TR3 FP assay of Bcl-B inhibitor potency, EC50 (AID 1243). Format: functional.
Sequence of Bcl-2-like protein 10 (Q9HD36 whole entry): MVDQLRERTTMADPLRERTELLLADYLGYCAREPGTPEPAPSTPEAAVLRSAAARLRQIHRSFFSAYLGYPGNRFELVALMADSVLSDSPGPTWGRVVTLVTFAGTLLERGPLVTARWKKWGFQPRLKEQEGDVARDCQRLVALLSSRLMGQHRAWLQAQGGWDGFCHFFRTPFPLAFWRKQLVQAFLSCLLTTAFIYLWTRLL
Data set [14] concerns the target Heat shock 70 kDa protein 1A (Homo sapiens, UniProt P0DMV8). Nature of the data set: Hsp70 inhibitors, SAR follow-up, biochemical, fluorescence polarization (AID 1072). (Polarisation of emitted light reports the rotation of a fluorescent probe.)
For data set [15], the target named is T4, Dual specificity protein phosphatase 6 (Rattus norvegicus, UniProt Q64346).
T4 sequence (Q64346 whole entry): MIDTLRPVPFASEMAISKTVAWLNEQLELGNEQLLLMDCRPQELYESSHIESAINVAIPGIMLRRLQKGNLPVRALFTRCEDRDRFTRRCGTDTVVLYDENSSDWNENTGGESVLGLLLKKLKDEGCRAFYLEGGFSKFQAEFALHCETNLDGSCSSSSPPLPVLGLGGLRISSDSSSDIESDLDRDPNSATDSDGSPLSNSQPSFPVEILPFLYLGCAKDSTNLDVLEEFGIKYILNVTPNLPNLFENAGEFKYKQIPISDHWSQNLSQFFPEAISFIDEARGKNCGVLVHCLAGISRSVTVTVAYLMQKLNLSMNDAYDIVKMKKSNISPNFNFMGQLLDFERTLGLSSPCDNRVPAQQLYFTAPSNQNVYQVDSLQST

Data set [16] concerns the target T4, Dual specificity protein phosphatase 6. Format: functional.
The target of data set [17] is Lysosomal acid glucosylceramidase (Homo sapiens, UniProt P04062). The experiment in a line: Dose response cell-based high throughput screening assay to identify enhancers of beta-glucosidase activity. [Related pubchem assays: 784 ]. Format: functional.
Data set [18] in a line: inhibitors of intracellular T. cruzi replication, confirmation, NIH3T3 host cells, beta-gal luminescence (AID 2044).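 Note: intracellular parasites grown in NIH/3T3 mouse fibroblasts as host cells; luminescent beta-galactosidase reporter signal from transgenic T. cruzi replicating inside host cells; inhibitors lower the luminescence signal.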 Format: functional, cell-based.
Data set [19] is described as follows: cytotoxicity toward NIH3T3 fibroblasts, dose response, counter-screen, cell-based, ATP luminescence, mouse fibroblasts (AID 2010).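 Note: cells exposed to compound for about 90 hours before reading.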 Format: functional. (Counterscreens check selectivity or assay interference.)
The nature of data set [20]: Cytotoxicity screening for potential Inhibitors of Bacterial Capsule Biogenesis. [Related pubchem assays (depositor defined):AID488970]. Format: functional.
In data set [21] the target is T5, Alkaline phosphatase, tissue-nonspecific isozyme (Homo sapiens, UniProt P05186).
T5 sequence (P05186 whole entry): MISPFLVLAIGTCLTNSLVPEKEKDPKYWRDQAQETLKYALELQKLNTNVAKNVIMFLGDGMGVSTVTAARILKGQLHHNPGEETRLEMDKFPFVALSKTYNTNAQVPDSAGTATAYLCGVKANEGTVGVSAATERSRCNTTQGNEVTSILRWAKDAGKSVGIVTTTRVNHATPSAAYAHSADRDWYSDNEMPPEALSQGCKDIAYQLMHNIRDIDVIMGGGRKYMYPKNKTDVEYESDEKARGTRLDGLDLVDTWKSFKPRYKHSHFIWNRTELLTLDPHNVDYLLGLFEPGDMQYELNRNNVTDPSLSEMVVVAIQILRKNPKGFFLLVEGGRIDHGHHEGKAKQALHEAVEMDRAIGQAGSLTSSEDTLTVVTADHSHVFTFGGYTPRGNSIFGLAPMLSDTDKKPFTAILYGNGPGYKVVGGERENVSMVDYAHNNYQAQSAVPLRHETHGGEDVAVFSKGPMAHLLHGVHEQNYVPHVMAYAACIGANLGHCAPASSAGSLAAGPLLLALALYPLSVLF

Data set [22] in a line: HEp-2 cell cytotoxicity, dose response, cytotoxicity control for RSV inhibitor project, HTS (AID 2410). The settings on record: human respiratory syncytial virus. Format: functional.
Data set [23] is described as follows: inhibitors of firefly luciferase expression or activity, dose response, H4 neuroglioma cells, luminescence (AID 1990). Format: functional, cell-based.
The nature of data set [24]: Luminescence Cell-Based Dose Response HTS to Identify Inhibitors of 5'UTR Stem-Loop Driven Prion Protein mRNA Translation in H4 Neuroglioblastoma Cells. [Related pubchem assays: 1827 (Project Summary), 1813 (Primary HTS)]. Format: functional.
Data set [25] is described as follows: inhibitors of SNCA 5'UTR-driven reporter translation, confirmation, H4 neuroglioma cells, luminescence (AID 1988). Format: functional, cell-based.
The next data set concerns the target Vasopressin V1a receptor (Homo sapiens, UniProt P37288). The experiment in a line: Counterscreen for Oxytocin Receptor (OXTR) agonists: Fluorescence-based cell-based high throughput dose response assay to identify agonists of the vasopressin 1 receptor (V1R). [Related pubchem assays: 2435 (Primary screen (OXTR agonists in singlicate)), 434991 (Counterscreen (V1R agonists in triplicate)), 2482 (Summary (OXTR agonists)) …. Format: functional.

In another data set the target is Oxytocin receptor (Homo sapiens, UniProt P30559). The experiment in a line: Fluorescence-based cell-based high throughput dose response assay for agonists of the Oxytocin Receptor (OXTR). [Related pubchem assays: 2435 (Primary screen (OXTR agonists in singlicate)), 434991 (Counterscreen (V1R agonists in triplicate)), 2482 (Summary (OXTR agonists)), 434963 (Confirmation screen (OXTR agonists in triplicate))]. Format: functional.
Sequence of Oxytocin receptor (P30559 whole entry): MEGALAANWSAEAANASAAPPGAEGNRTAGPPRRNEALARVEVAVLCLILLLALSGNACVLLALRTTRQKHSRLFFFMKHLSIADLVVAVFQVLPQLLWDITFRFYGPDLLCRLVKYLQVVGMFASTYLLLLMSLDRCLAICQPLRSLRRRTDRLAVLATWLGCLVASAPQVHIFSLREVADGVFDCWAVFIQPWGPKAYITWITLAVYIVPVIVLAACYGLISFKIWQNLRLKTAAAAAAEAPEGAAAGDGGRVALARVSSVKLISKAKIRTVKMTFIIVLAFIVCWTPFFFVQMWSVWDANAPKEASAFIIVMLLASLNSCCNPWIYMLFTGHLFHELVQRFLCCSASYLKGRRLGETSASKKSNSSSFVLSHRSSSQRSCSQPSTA

Data set [26] has as its target Beta-2 adrenergic receptor (Homo sapiens, UniProt P07550). The experiment in a line: beta2AR agonists driving receptor internalization, dose response, cell-based, FAP fluorogen, flow cytometry, cherry pick 1 (AID 588763). Format: functional.
In another data set the test system is Staphylococcus aureus. Nature of the data set: Inhibitors of Bacterial Quorum Sensing Structure Activity Relationship (SAR) Analysis: Dose Response Assay. [Related pubchem assays: 700, 527 ]. Format: functional, organism-based.
The target of the next data set is Cytochrome P450 3A4 (Homo sapiens, UniProt P08684).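 Note: CYP3A4 tested as one member of a cytochrome P450 panel screen.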
Sequence of Cytochrome P450 3A4 (P08684 whole entry): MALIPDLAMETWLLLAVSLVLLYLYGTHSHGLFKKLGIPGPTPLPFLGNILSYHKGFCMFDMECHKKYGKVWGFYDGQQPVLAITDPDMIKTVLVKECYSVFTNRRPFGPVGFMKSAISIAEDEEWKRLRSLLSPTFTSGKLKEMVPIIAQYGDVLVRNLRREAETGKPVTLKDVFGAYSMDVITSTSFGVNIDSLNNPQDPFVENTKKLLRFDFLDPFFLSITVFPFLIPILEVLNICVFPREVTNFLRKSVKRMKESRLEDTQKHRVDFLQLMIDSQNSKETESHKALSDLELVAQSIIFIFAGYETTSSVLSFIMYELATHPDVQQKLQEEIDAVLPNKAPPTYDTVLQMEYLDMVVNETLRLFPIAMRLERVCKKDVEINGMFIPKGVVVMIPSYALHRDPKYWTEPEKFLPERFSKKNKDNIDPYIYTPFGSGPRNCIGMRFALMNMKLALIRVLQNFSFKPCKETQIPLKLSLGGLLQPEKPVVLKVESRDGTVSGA

Activity calls are given as the source filed them.

Sequence of Beta-2 adrenergic receptor (P07550 whole entry): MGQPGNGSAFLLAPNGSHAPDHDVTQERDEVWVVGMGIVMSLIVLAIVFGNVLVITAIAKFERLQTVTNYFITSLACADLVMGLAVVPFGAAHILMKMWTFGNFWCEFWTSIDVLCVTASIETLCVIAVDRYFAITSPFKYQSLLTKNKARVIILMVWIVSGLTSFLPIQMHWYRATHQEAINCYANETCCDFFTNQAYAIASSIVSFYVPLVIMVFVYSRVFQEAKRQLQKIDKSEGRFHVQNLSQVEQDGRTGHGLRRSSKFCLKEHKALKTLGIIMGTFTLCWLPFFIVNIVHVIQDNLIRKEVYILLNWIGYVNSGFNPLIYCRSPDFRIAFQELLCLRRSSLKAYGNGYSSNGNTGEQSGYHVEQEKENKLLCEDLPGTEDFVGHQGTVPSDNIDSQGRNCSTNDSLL
Sequence of Melanin-concentrating hormone receptor 1 (Q99705 whole entry): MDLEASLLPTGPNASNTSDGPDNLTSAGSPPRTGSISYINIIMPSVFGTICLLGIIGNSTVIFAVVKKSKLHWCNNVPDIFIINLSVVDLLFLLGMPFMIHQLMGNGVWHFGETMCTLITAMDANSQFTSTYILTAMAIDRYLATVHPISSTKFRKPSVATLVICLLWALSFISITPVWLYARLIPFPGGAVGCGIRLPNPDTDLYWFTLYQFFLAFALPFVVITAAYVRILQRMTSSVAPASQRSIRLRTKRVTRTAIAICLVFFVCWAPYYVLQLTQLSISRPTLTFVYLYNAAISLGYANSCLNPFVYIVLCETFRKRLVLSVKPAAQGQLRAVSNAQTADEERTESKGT
Sequence of Neurotensin receptor type 1 (P30989 whole entry): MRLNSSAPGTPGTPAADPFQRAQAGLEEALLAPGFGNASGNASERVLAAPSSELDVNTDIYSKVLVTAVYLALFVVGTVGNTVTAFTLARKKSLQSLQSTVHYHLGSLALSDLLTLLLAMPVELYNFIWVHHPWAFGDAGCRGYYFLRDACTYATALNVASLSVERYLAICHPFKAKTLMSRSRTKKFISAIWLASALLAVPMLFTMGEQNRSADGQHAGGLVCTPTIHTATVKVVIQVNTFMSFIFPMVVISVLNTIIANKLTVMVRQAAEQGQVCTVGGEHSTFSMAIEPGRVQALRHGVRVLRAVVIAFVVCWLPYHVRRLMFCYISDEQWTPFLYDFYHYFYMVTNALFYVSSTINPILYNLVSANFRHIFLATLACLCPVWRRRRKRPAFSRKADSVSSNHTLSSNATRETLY
Sequence of Vasopressin V1a receptor (P37288 whole entry): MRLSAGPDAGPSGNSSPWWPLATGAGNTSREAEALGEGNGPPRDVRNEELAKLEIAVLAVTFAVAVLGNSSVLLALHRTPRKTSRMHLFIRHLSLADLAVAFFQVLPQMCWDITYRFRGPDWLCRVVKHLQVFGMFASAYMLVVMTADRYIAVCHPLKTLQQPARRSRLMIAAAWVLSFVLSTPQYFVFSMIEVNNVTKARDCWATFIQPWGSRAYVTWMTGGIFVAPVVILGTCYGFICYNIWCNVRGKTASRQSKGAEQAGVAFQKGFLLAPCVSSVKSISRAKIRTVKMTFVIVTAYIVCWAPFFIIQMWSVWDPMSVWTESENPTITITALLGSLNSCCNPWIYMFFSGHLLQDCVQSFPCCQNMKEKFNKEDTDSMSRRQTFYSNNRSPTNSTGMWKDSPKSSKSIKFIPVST

Take `C/C=C/OC(=O)NC(c1ccccc1)[C@]1(C(C)=O)CCOC1=O` (stereo partly drawn): the AC50 on Cytochrome P450 2C9 was 0.794 µM (inconclusive).

Regarding `Cc1cc(O)nc(-n2nc(C)cc2NC(=O)c2ccc(F)cc2)n1`, the EC50 on Wee1-like protein kinase was > 16.6 µM (active); in data set [1] it was > 49.7 µM (inactive).

On to `CN(C)c1ccc(Nc2ccc([N+](=O)[O-])cn2)cc1`, for which the values for the IC50 in data set [2], in [3] and in data set [4] were > 43.8 µM (not active), > 43.8 µM (not active) and 36.4 µM (active), respectively.

Take `COc1ccc2sc(-c3ccc(S(C)(=O)=O)cc3)c(C#CCO)c2c1`: the EC50 in data set [5] is 26.6 µM (inactive). Besides, the AC50 in data set [6] is 10.6 µM (active); in data set [7], 24.4 µM (active); in data set [8] it was 25 µM (active); in data set [9] it was 30.1 µM (active); in data set [10], 16.8 µM (active).

`CC(=O)Nc1ccc2c(c1)C1C=CCC1C(C(=O)O)N2` (stereo not drawn): the IC50 in data set [11] is 21 µM (active); in [12], > 100 µM (not active); in data set [13] it was > 100 µM (not active); in data set [14] it was 35.2 µM (active); in data set [15] it was > 100 µM (inactive); in data set [16], > 100 µM (inactive). At Bcl-2-like protein 10, the EC50 is 4.44 µM (active).

Consider `CC(C)(C)NC(=O)CSc1nncn1NCc1ccccc1`, for which the EC50 in [17] is on record as > 50 µM (not active).

Consider `COc1cc(/C=N/N=C(N)N)ccc1OCc1ccccc1Cl`, for which the values for the EC50 in data set [18] and in data set [19] were 0.447 µM (active) and > 60 µM (not active), respectively. The CC50 in data set [20] was 6.19 µM (active).

For the molecule `C=CCNC(=S)NNC(=O)C(CCC(C)C)CC(C)O` (stereo not drawn), the EC50 in data set [21] is 43.5 µM (active).

With `COc1ccc(CCNCC(O)Cn2c3ccccc3c3ccccc32)cc1OC` (stereo not drawn), in [22], the CC50 was 13.7 µM (active). For the same molecule, the EC50 was 8.76 µM (active) in data set [23]; > 120 µM (not active) in data set [24]; > 120 µM (not active) in data set [25]; 12.7 µM (not active) on Vasopressin V1a receptor; 18.8 µM (not active) on Oxytocin receptor; 12.5 µM (inactive) in [26].

For `Cc1cccc(Nc2ccccc2C(=O)O)c1C` [MEFENAMIC ACID], the IC50 in the data set on Staphylococcus aureus is 1.34 µM (active). Also, at Cytochrome P450 3A4, the AC50 entry is recorded as “inconclusive”.
